For 38 compounds, IC50 results are on record in US20250171463A1 (BIOGEN MA INC., priority 2022, published 2025).

The IC50 is the concentration that gives 50% inhibition. The low end stands for inhibition by little substance, the high end for a need for much substance.

The target of the test is T1, EBP (Homo sapiens, UniProt Q15125).
T1 construct: HEK293T cells were utilized as the source of EBP enzyme; endogenous in cells; host or cells: HEK293T
T1 sequence (Q15125 whole entry): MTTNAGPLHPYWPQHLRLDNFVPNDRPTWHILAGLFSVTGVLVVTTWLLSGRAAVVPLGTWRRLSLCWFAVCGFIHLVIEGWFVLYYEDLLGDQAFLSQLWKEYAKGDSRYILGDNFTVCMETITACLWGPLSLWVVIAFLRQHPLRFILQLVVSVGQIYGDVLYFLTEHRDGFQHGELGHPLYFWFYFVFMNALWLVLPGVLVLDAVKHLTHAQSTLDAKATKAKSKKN
As to the kind of experiment: EBP Functional Assay (EBP immunoaffinity LC-MS assay). To be noted: EBP enzyme from HEK293T cells; 30 min with inhibitor, then zymosterol-d5, 37° C., 4 h; percent conversion to dehydrolathosterol-d5 by LC-APCI MRM MS. The format is biochemical. Summed up: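 HEK293T cells served as EBP source; enzyme preincubated 30 min with inhibitor dilutions, then zymosterol-d5 substrate added and incubated 4 h at 37° C. Sterols extracted and quantified by LC-APCI MRM MS; percent conversion to […] fit to 4-parameter logistic for IC50. Tasin-1 reference inhibitor.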
`O=S(=O)(c1cc(C(F)(F)F)nn1CC1CC1)N1CC2(CN(CC3CCOCC3)C2)C1` [Example 66, 2-((1-(cyclopropylmethyl)-3-(trifluoromethyl)-1H-pyrazol-5-yl)sulfonyl)-6-((tetrahydro-2H-pyran-4-yl)methyl)-2,6-diazaspiro[3.3]heptane] yielded a half-maximal inhibitory concentration (IC50) of 250 to 4000 nM.

Regarding `Cc1nc(Br)ccc1S(=O)(=O)N1CC2(CN(C3CCOCC3)C2)C1` [Example 67, 2-((6-bromo-2-methylpyridin-3-yl)sulfonyl)-6-(tetrahydro-2H-pyran-4-yl)-2,6-diazaspiro[3.3]heptane], the concentration for half-maximal inhibition (IC50) is 250 to 4000 nM.

Compound `Cc1nc(C(F)(F)F)ccc1S(=O)(=O)N1CC2(C1)CN([C@H]1C[C@]3(CCO3)C1)C2` [Example 70, 2-((2-methyl-6-(trifluoromethyl)pyridin-3-yl)sulfonyl)-6-((4s,6s)-1-oxaspiro[3.3]heptan-6-yl)-2,6-diazaspiro[3.3]heptane] registered an IC50 of less than 100 nM.

`Cc1nc(C(F)(F)F)ccc1S(=O)(=O)N1CC2(C1)CN([C@H]1C[C@@]3(CCO3)C1)C2` [Example 71, 2-((2-methyl-6-(trifluoromethyl)pyridin-3-yl)sulfonyl)-6-((4r,6r)-1-oxaspiro[3.3]heptan-6-yl)-2,6-diazaspiro[3.3]heptane]: the IC50 is 100 to 250 nM.

As for `Cn1nc(C(F)(F)F)cc1S(=O)(=O)N1CC2(CN(CC3(C)CCOCC3)C2)C1` [Example 72, 2-((1-methyl-3-(trifluoromethyl)-1H-pyrazol-5-yl)sulfonyl)-6-((4-methyltetrahydro-2H-pyran-4-yl)methyl)-2,6-diazaspiro[3.3]heptane], the half-inhibitory concentration (IC50) lay in the range of 100 to 250 nM.

Turning to `Cc1nc(C(F)(F)F)ccc1S(=O)(=O)N1CC2(CN(CC34COC(C)(C3)C4)C2)C1` [Example 73, 2-((1-methyl-2-oxabicyclo[2.1.1]hexan-4-yl)methyl)-6-((2-methyl-6-(trifluoromethyl)pyridin-3-yl)sulfonyl)-2,6-diazaspiro[3.3]heptane], the half-maximal inhibitory concentration (IC50) fell in the range of 100 to 250 nM.

Take `Cc1nc(C(F)(F)F)ccc1S(=O)(=O)N1CC2(CN(CC34CCOC(C)(C3)C4)C2)C1` [Example 74, 2-((1-methyl-2-oxabicyclo[3.1.1]heptan-5-yl)methyl)-6-((2-methyl-6-(trifluoromethyl)pyridin-3-yl)sulfonyl)-2,6-diazaspiro[3.3]heptane]: the IC50 is less than 100 nM.

As for `Cn1nc(C(F)(F)F)cc1S(=O)(=O)N1CC2(CN(C3(C)CCOCC3)C2)C1` [Example 76, 2-((1-methyl-3-(trifluoromethyl)-1H-pyrazol-5-yl)sulfonyl)-6-(4-methyltetrahydro-2H-pyran-4-yl)-2,6-diazaspiro[3.3]heptane], the half-maximal inhibitory concentration (IC50) was less than 100 nM.

`Cc1nc(C(F)(F)F)ccc1S(=O)(=O)N1CC2(CN(C3(C)CCOCC3)C2)C1` [Example 77, 2-((2-methyl-6-(trifluoromethyl)pyridin-3-yl)sulfonyl)-6-(4-methyltetrahydro-2H-pyran-4-yl)-2,6-diazaspiro[3.3]heptane]: the concentration for half-maximal inhibition (IC50) is less than 100 nM.

For `Cc1nc(C(C)(F)F)ccc1S(=O)(=O)N1CC2(CN(C3CC4(COC4)C3)C2)C1` [Example 78, 2-((6-(1,1-difluoroethyl)-2-methylpyridin-3-yl)sulfonyl)-6-(2-oxaspiro[3.3]heptan-6-yl)-2,6-diazaspiro[3.3]heptane], the half-inhibitory concentration (IC50) lay in the range of 100 to 250 nM.

Consider `Cc1nc(C(C)(F)F)ccc1S(=O)(=O)N1CC2(CN(C3CCOCC3)C2)C1` [Example 79], for which the IC50 was less than 100 nM.

For the compound `Cc1nc(C(C)(F)F)ccc1S(=O)(=O)N1CC2(CN(C3CCCOC3)C2)C1` (centres unmarked) [Example 80], the half-inhibitory concentration (IC50) is 250 to 4000 nM.

Turning to `Cc1nc(C(C)(F)F)ccc1S(=O)(=O)N1CC2(CN(CC3CCOCC3)C2)C1` [Example 81], the concentration for half-maximal inhibition (IC50) is less than 100 nM.

As to `Cc1nc(C(C)(F)F)ccc1S(=O)(=O)N1CC2(CN(C(C)C3CCOCC3)C2)C1` (centres unmarked) [Example 82], the concentration for half-maximal inhibition (IC50) lay within 250 to 4000 nM.

For the compound `Cc1nc(C(C)(F)F)ccc1S(=O)(=O)N1CC2(CN(CC3(C)CCOCC3)C2)C1` [Example 83], the IC50 is 100 to 250 nM.

`Cc1nc(C(C)(F)F)ccc1S(=O)(=O)N1CC2(CN(C3CCOC3)C2)C1` (centres unmarked) [Example 84] came in with an IC50 of 250 to 4000 nM.

Consider `Cc1nc(C(C)(F)F)ccc1S(=O)(=O)N1CC2(CN(CC3CCOC3)C2)C1` (centres unmarked) [Example 85], for which the IC50 is less than 100 nM.

For the compound `Cc1nc(C(C)(F)F)ccc1S(=O)(=O)N1CC2(CN(C(C)C3CCOC3)C2)C1` (centres unmarked) [Example 86], the concentration for half-maximal inhibition (IC50) is less than 100 nM.

For `Cc1nc(C(C)(F)F)ccc1S(=O)(=O)N1CC2(CN(CC3COC3)C2)C1` [Example 87], the IC50 was less than 100 nM.

On to `Cc1nc(C(C)(F)F)ccc1S(=O)(=O)N1CC2(CN(C(C)C3COC3)C2)C1` (centres unmarked) [Example 88], for which the half-inhibitory concentration (IC50) was 100 to 250 nM.

In turn, `Cc1nc(C(C)(F)F)ccc1S(=O)(=O)N1CC2(CN(CC3(C)COC3)C2)C1` [Example 89] showed an IC50 of less than 100 nM.

`Cc1nc(C(F)F)ccc1S(=O)(=O)N1CC2(CN(C3CCOCC3)C2)C1` [Example 90, 2-((6-(difluoromethyl)-2-methylpyridin-3-yl)sulfonyl)-6-(tetrahydro-2H-pyran-4-yl)-2,6-diazaspiro[3.3]heptane] yielded an IC50 of 100 to 250 nM.

Regarding `Cc1nc(C(F)F)ccc1S(=O)(=O)N1CC2(CN(C3CC4(COC4)C3)C2)C1` [Example 91, 2-((6-(difluoromethyl)-2-methylpyridin-3-yl)sulfonyl)-6-(2-oxaspiro[3.3]heptan-6-yl)-2,6-diazaspiro[3.3]heptane], the 50% inhibitory concentration (IC50) lay in the range of 250 to 4000 nM.

In turn, `Cc1nc(C(C)(C)F)ccc1S(=O)(=O)N1CC2(CN(C3CC4(COC4)C3)C2)C1` [Example 92, 2-((6-(2-fluoropropan-2-yl)-2-methylpyridin-3-yl)sulfonyl)-6-(2-oxaspiro[3.3]heptan-6-yl)-2,6-diazaspiro[3.3]heptane] displayed an IC50 of less than 100 nM.

With `Cc1nc(C(C)(C)F)ccc1S(=O)(=O)N1CC2(CN(C3CCOCC3)C2)C1` [Example 93, 2-((6-(2-fluoropropan-2-yl)-2-methylpyridin-3-yl)sulfonyl)-6-(tetrahydro-2H-pyran-4-yl)-2,6-diazaspiro[3.3]heptane], the half-inhibitory concentration (IC50) is less than 100 nM.

Take `Cc1nc(OC(F)F)ccc1S(=O)(=O)N1CC2(CN(C3CCOCC3)C2)C1` [Example 94, 2-((6-(difluoromethoxy)-2-methylpyridin-3-yl)sulfonyl)-6-(tetrahydro-2H-pyran-4-yl)-2,6-diazaspiro[3.3]heptane]: the IC50 is less than 100 nM.

The compound `Cc1nc(OC(F)F)ccc1S(=O)(=O)N1CC2(CN(C3CC4(COC4)C3)C2)C1` [Example 95, 2-((6-(difluoromethoxy)-2-methylpyridin-3-yl)sulfonyl)-6-(2-oxaspiro[3.3]heptan-6-yl)-2,6-diazaspiro[3.3]heptane] gave an IC50 of 100 to 250 nM.

For the compound `Cn1nc(C(F)F)cc1S(=O)(=O)N1CC2(CN(C3CCOCC3)C2)C1` [Example 96, 2-((3-(difluoromethyl)-1-methyl-1H-pyrazol-5-yl)sulfonyl)-6-(tetrahydro-2H-pyran-4-yl)-2,6-diazaspiro[3.3]heptane], the concentration for half-maximal inhibition (IC50) was in the range of 100 to 250 nM.

The compound `COc1cc(S(=O)(=O)N2CC3(CN(C4CCOCC4)C3)C2)n(C)n1` [Example 97, 2-((3-methoxy-1-methyl-1H-pyrazol-5-yl)sulfonyl)-6-(tetrahydro-2H-pyran-4-yl)-2,6-diazaspiro[3.3]heptane] registered a half-inhibitory concentration (IC50) of 250 to 4000 nM.

Compound `COc1ccc(S(=O)(=O)N2CC3(CN(C4CCOCC4)C3)C2)c(Cl)n1` [Example 98, 2-((2-chloro-6-methoxypyridin-3-yl)sulfonyl)-6-(tetrahydro-2H-pyran-4-yl)-2,6-diazaspiro[3.3]heptane] returned a 50% inhibitory concentration (IC50) of less than 100 nM.

With `COc1ncc(Cl)cc1S(=O)(=O)N1CC2(CN(C3CCOCC3)C2)C1` [Example 99, 2-((5-chloro-2-methoxypyridin-3-yl)sulfonyl)-6-(tetrahydro-2H-pyran-4-yl)-2,6-diazaspiro[3.3]heptane], the half-inhibitory concentration (IC50) was less than 100 nM.

Regarding `Cc1cc(C(F)(F)F)nc(C)c1S(=O)(=O)N1CC2(CN(C3CCOCC3)C2)C1` [Example 100, 2-((2,4-dimethyl-6-(trifluoromethyl)pyridin-3-yl)sulfonyl)-6-(tetrahydro-2H-pyran-4-yl)-2,6-diazaspiro[3.3]heptane], the concentration for half-maximal inhibition (IC50) was less than 100 nM.

In turn, `Cc1cc(C(F)(F)F)nc(C)c1S(=O)(=O)N1CC2(CN(C3CC4(COC4)C3)C2)C1` [Example 101, 2-((2,4-dimethyl-6-(trifluoromethyl)pyridin-3-yl)sulfonyl)-6-(2-oxaspiro[3.3]heptan-6-yl)-2,6-diazaspiro[3.3]heptane] gave an IC50 of 100 to 250 nM.

As to `Cc1cc(C(F)(F)F)nc(C)c1S(=O)(=O)N1CC2(CN(CC3CCOCC3)C2)C1` [Example 102], the IC50 is less than 100 nM.

The compound `Cc1cc(C(F)(F)F)nc(C)c1S(=O)(=O)N1CC2(CN(CC3COC3)C2)C1` [Example 104] had an IC50 of 100 to 250 nM.

`Cc1ccc(S(=O)(=O)N2CC3(CN(C4CCOCC4)C3)C2)c(C(F)(F)F)n1` [Example 105, 2-((6-methyl-2-(trifluoromethyl)pyridin-3-yl)sulfonyl)-6-(tetrahydro-2H-pyran-4-yl)-2,6-diazaspiro[3.3]heptane] had an IC50 of 100 to 250 nM.

With `Cc1ccc(S(=O)(=O)N2CC3(CN(CC4CCOCC4)C3)C2)c(C(F)(F)F)n1` [Example 106, 2-((6-methyl-2-(trifluoromethyl)pyridin-3-yl)sulfonyl)-6-((tetrahydro-2H-pyran-4-yl)methyl)-2,6-diazaspiro[3.3]heptane], the IC50 was in the range of 100 to 250 nM.

Compound `O=S(=O)(c1ccc(C2CC2)nc1C(F)(F)F)N1CC2(CN(C3CCOCC3)C2)C1` [Example 107, 2-((6-cyclopropyl-2-(trifluoromethyl)pyridin-3-yl)sulfonyl)-6-(tetrahydro-2H-pyran-4-yl)-2,6-diazaspiro[3.3]heptane] gave an IC50 of less than 100 nM.
